# Reference: PubChem BioAssay AID687023 (Broad Institute, 2013)
# Values joined by “and” are separate entries in the source; they are usually repeats but may differ in a detail not shown here. Identical values can stand only once. Active and inactive are the calls of the source. How the calls were made is not given here.
# System: not listed separately
# Assay: HIV Env cell-cell fusion inhibitors, dose response, HIV entry, plate reader, dry powder (AID 687023)
# Details: Env-mediated cell-cell fusion, plate reader; at 1.2 µM (top of the series)
row,Compound,"activity change, negative = inhibition"
1,Cc1noc(C)c1S(=O)(=O)Nc1cccc2c1O[C@H](CN(C)Cc1ccc(C(F)(F)F)cc1)[C@@H](C)CN([C@H](C)CO)C2=O,53.5% (inactive)
2,Cc1ccc(-c2nnc3ccc4c(C(F)(F)F)cc(C(F)(F)F)nc4n23)cc1,38.4% (inactive)
3,Oc1ccc(CNc2ccccc2F)c2cccnc12,33.1% (inactive)

# Same assay, conditions: Env-mediated cell-cell fusion, plate reader; at 3.8 µM (top of the series)
row,Compound,"activity change, negative = inhibition"
1,CCOc1ccc(OCC)c(S(=O)(=O)NCc2ccncc2)c1,30.3% (inactive)
2,COC(=O)COc1ccc(S(=O)(=O)NCc2ccncc2)cc1,62.5% (inactive)

# Same assay, conditions: Env-mediated cell-cell fusion, plate reader; at 35 µM (top of the series)
row,Compound,"activity change, negative = inhibition"
1,COc1ccccc1CCNCc1ccc(OC)c(OCc2ccccc2)c1,-63.1% (inactive)
2,Cc1ccc(C)n1-c1ccc(C(=O)O)c(O)c1,0.014% (inactive)
3,CCOc1ccc(S(=O)(=O)NCc2ccccn2)cc1,34.6% (inactive)
4,Cc1noc(C)c1S(=O)(=O)Nc1cccc2c1O[C@@H](CN(C)Cc1ccc(C(F)(F)F)cc1)[C@H](C)CN([C@@H](C)CO)C2=O,56% (inactive)
5,N=C1Sc2ccccc2C2=NCCCN12,2.5% (inactive)
6,Cc1ccc(S(=O)(=O)Nc2cccc3c2O[C@@H](CN(C)Cc2ccc(Cl)c(Cl)c2)[C@@H](C)CN([C@H](C)CO)C3=O)cc1,-87.2% (inactive)
7,Cc1noc(C)c1S(=O)(=O)Nc1cccc2c1O[C@@H](CN(C)Cc1ccc(C(F)(F)F)cc1)[C@H](C)CN([C@H](C)CO)C2=O,15.3% (inactive)

# System: Env-mediated cell-cell fusion, plate reader
# Assay: as above
# Details: not given
row,Compound,AC50
1,CCCn1nc(C(=O)Nc2ccc3nc(N4CCOCC4)sc3c2)ccc1=O,4.24 µM and 9.79 µM
2,CCCOc1ccc(S(=O)(=O)NCc2ccncc2)c2ccccc12,0.945 µM and 2.88 µM
3,O=C(CCc1ccc(S(=O)(=O)N2CCOCC2)cc1)Nc1nc(COc2ccccc2)cs1,3.51 µM and 8.07 µM
4,CC(C)(C)c1ccc(-c2noc(CCC(=O)NCC3CCCO3)n2)cc1 (stereo unspecified),0.0954 µM and 0.484 µM
5,CC1(C)CC(NC(=O)C(=O)Nc2ccc(Cl)cc2)CC(C)(C)N1,> 70 µM (inactive) and 27.4 µM
6,COc1ccc(-c2nn(C)c(=O)c3ccccc23)cc1NC(=O)Cn1nc(C)c2ccccc2c1=O,4.03 µM and 23.5 µM
7,CCOc1ccc(S(=O)(=O)NC(C)c2ccncc2)cc1 (stereo unspecified),1.16 µM and 2.43 µM
8,COc1ccc(CC(=O)Nc2cccc(S(=O)(=O)N3CCCCCC3)c2)cc1OC,3.95 µM and 1.88 µM
9,Nc1nonc1C(=O)NCCNCc1c(OCc2ccccc2F)ccc2ccccc12,9.38 µM and 3.61 µM
